From patent US20170291890A1 (Epizyme, Inc., priority 2014, published 2017)
Where two headings read alike, the source gives them in different places.

Tests used:
KDM5A = biological target: T1, KDM5A (Homo sapiens, UniProt P29375); experiment: KDM5A Assay (SAMDI mass spectrometry demethylase assay); format: biochemical; conditions: C-terminal FLAG-tagged KDM5A 1-1090; class symbols; read-out: 5A IC50
T1 construct: C-terminal FLAG-tagged KDM5A^1-1090 was purchased from BPS Biosciences; FLAG (C); purchased BPS Biosciences
T1 sequence (P29375 1-1090): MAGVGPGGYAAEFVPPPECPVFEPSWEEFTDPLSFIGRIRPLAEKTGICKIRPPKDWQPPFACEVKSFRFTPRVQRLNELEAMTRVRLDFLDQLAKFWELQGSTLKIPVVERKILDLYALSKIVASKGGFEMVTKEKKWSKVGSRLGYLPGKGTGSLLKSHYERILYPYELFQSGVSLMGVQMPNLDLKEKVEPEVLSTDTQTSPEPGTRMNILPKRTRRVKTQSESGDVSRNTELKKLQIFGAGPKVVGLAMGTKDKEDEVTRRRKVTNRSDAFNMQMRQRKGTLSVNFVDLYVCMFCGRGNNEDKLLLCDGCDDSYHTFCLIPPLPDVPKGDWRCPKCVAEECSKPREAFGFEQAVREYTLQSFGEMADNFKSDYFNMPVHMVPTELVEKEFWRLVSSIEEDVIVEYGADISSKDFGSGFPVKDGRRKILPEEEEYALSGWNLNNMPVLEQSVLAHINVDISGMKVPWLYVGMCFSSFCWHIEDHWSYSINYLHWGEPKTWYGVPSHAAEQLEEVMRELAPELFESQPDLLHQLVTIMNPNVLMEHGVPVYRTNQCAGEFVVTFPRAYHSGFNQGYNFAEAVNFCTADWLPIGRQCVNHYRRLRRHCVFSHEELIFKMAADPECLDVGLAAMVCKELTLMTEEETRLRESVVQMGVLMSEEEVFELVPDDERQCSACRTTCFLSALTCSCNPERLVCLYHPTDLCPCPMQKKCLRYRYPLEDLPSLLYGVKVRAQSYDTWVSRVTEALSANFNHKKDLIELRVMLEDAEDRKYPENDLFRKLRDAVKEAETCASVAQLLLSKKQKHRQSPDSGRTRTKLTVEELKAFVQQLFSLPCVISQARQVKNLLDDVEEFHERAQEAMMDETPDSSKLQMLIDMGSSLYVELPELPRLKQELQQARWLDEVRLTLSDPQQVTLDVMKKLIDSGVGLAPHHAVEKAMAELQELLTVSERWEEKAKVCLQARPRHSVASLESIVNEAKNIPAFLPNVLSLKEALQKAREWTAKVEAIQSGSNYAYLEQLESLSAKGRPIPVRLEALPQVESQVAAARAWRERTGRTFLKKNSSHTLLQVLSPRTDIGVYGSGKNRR
Method: (§1) C-terminal FLAG-tagged KDM5A^1-1090 was purchased from BPS Biosciences. Peptides were synthesized by BioPeptide and all other reagents were purchased from Sigma-Aldrich at the highest level of purity possible. Assays were performed in a 50 μL volume in 384-well V-bottom polypropylene microplates (Greiner) at 25° C. Optimized 1× assay buffer was 50 mM HEPES (pH=8.0), 100 μM sodium ascorbate, 20 mM NaCl, 10 μM ammonium iron sulfate, 1 mM tris(2-carboxyethyl)phosphine (TCEP), 0.002% Tween-20, and 0.005% BSG. For compound screening, 35 μL of KDM5A^1-109° (final concentration, f.c.=20 nM) was added using a Multidrop Combi and preincubated with 1 μL of test compound (f.c.=10 μM) for 30 minutes and subsequently 15 μL of peptide with the following sequence NH2-ART[Kme-3]QTARKSTGGKA[K-Ahx-Biot]-amide (f.c.=250 nM) and 2-oxoglutarate (f.c.=15 μM) was added by Multidrop Combi to begin the reaction. Reactions proceeded for 150 minutes and were stopped by the addition of 5 μL of formic acid (f.c.=0.5%) using a Multidrop Combi and then analyzed by SAMDI Tech Inc.
(§2) SAMDI Tech analyzed all reactions using self-assembled monoloayer desorption/ionization technology as previously described (Gerard-Levin Z A, Scholle M D, Eisenberg A H, et al.: High-throughput screening of small molecule libraries using SAMDI mass spectrometry. ACS Comb Sci 2011; 13:347-350). Briefly, a 2 μL sample of the stopped demethylase reactions were transferred to a SAMDI array coated with 384 biotin-neutravidin spots using a 384-channel pipet station. The SAMDI arrays were incubated for 1 h in a humidified chamber, followed by washing of the surface with deionized ultra-filtered water (DIUF) and drying under nitrogen. A matrix of 30 mg/ml 2′,4′,6′-Trihydroxyacetophenone monohydrate (THAP) in acetone was applied using a TPP Mosquito 1.2 μL tip by dispensing 50 nL on each of the 384 spots on the array. SAMDI-MS was run using acquisition method ReflectorPositiveUTX. The % conversion of substrate to product was calculated using the AUC of the substrate and product peptide peaks.
(§3) An IC50 value was determined by contacting various concentrations of a test compound with one of the KDM4A, KDM4C or KDMSC enzyme constructs and plotting a dose-response curve which associates the amount of inhibition of the enzyme relative to the concentration of the test compound. From the curve, the IC50 value (which represents the concentration of the test compound necessary to inhibit maximal enzymatic activity by 50%) was determined. Additionally, the slope of the linear range of the plotted curve, which indicates the speed with which the curve rises between the minimum and maximum, was calculated.

KDM4C = biological target: T2, KDM4C (Homo sapiens, UniProt Q9H3R0); experiment: KDM4C Assay (SAMDI mass spectrometry demethylase assay); format: biochemical; conditions: N-terminal GST-tagged KDM4C 2-372, read-out: 4C IC50
T2 construct: N-terminal GST-tagged KDM4C^2-372 was purchased from BPS Biosciences; GST (N); purchased BPS Biosciences
T2 sequence (Q9H3R0 2-372): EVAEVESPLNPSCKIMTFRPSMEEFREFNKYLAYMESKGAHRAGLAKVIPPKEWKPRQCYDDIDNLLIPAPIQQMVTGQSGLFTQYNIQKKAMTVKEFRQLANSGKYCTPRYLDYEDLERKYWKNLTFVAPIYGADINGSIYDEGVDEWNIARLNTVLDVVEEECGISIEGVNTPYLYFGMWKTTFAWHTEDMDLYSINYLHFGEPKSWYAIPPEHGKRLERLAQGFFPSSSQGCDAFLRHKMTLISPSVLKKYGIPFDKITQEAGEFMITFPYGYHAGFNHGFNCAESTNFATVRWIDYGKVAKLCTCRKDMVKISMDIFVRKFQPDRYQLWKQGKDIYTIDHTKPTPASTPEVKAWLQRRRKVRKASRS
Method: as §1, with “N-terminal GST-tagged KDM4C^2-372” for “C-terminal FLAG-tagged KDM5A^1-1090”, “KDM4C^2-372” for “KDM5A^1-109°”, “f.c.=5” for “f.c.=20”, “NH2-ARTKQTAR(Kme3)STGGKAPRKQLA(K-Ahx-Biotin)-amide (f.c.=500” for “NH2-ART[Kme-3]QTARKSTGGKA[K-Ahx-Biot]-amide (f.c.=250”
as §2, §3

IC50 (KDM5A) [nM]	IC50 (KDM4C; class symbols) [nM]	IC50 (KDM4C; numeric bound) [nM]	Structure (SMILES)
10000 to 100000	10000 to 100000		O=C(O)c1ccncc1Nc1c(-c2ccccc2)cnn1[C@H]1CNc2ccccc2C1 [Compound 137, (R)-3-(4-phenyl-1-(1,2,3,4-tetrahydroquinolin-3-yl)-1H-pyrazol-5-ylamino)isonicotinic acid]
1000 to 10000	1000 to 10000		Cc1c(Nc2cnccc2C(=O)O)cnn1CCN(C)C [Compound 108]
1000 to 10000	100 to 1000		Cc1c(Nc2cnccc2C(=O)O)cnn1C1CCCN(C2CCC2)CC1 (single isomer, unassigned) [Compound 117]
100 to 1000	100 to 1000		Cc1cn(Cc2ccccc2)nc1Nc1cnccc1C(=O)O [Compound 128, 3-(1-benzyl-4-methyl-1H-pyrazol-3-ylamino)isonicotinic acid]
10000 to 100000		> 100000	Cc1nn([C@@H]2CCN(C)C2)cc1Nc1cnccc1C(=O)NCCO [Compound 122, (R)—N-(2-hydroxy-ethyl)-3-((3-methyl-1-(1-methylpyrrolidin-3-yl)-1H-pyrazol-4-yl)amino)isonicotin-amide]
1 to 100	100 to 1000		O=C(O)c1ccncc1Nc1nn(C2CCNCC2)cc1-c1ccccc1 [Compound 129, 3-(4-phenyl-1-(piperidin-4-yl)-1H-pyrazol-3-ylamino) isonicotinic acid]
1000 to 10000	100 to 1000		Cc1c(Nc2cnccc2C(=O)O)cnn1C1CCCN(C2CCC2)CC1 (single isomer, unassigned) [Compound 119]
10000 to 100000	10000 to 100000		Cc1cnn(C2CCCN(CCN)C2)c1Nc1cnccc1C(=O)O (centres unmarked) [Compound 140, 3-(1-(1-(2-aminoethyl)piperidin-3-yl)-4-methyl-1H-pyrazol-5-yl-amino)isonicotinic acid]
1000 to 10000	1000 to 10000		CN1CCC(n2ncc(Nc3cnccc3C(=O)O)c2-c2ccccc2)C1 (centres unmarked) [Compound 124]
100 to 1000	1000 to 10000		Cc1nn(C2CCCN(C3CCC3)CC2)cc1Nc1cnccc1C(=O)O (single isomer, unassigned) [Compound 118]
100 to 1000	100 to 1000		O=C(O)c1ccncc1Nc1cnn(C2CCN(Cc3ccccc3)C2)c1-c1ccccc1 (centres unmarked) [Compound 125, 3-(1-(1-benzylpyrrolidin-3-yl)-5-phenyl-1H-pyrazol-4-ylamino) isonicotinic acid]
1000 to 10000	1000 to 10000		CN(C)CCc1cn(-c2ccccc2)nc1Nc1cnccc1C(=O)O [Compound 144, 3-(4-(2-(dimethylamino)ethyl)-1-phenyl-1H-pyrazol-3-ylamino) isonicotinic acid]
1 to 100	100 to 1000		Cc1cn(-c2cccc3c2CCNC3)nc1Nc1cnccc1C(=O)O [Compound 143, 3-(4-methyl-1-(1,2,3,4-tetrahydroisoquinolin-5-yl)-1H-pyrazol-3-ylamino)isonicotinic acid]
1000 to 10000	100 to 1000		Cc1c(Nc2cnccc2C(=O)O)cnn1C1CCCNCC1 (single isomer, unassigned) [Compound 113]
100 to 1000	1000 to 10000		Cc1nn([C@@H]2CNC[C@@H]2C)cc1Nc1cnccc1C(=O)O (single isomer, unassigned) [Compound 109]
1000 to 10000	1 to 100		Cc1c(Nc2cnccc2C(=O)O)cnn1C1CCN(c2ccccc2)CC1 [Compound 106, 3-(5-methyl-1-(1-phenylpiperidin-4-yl)-1H-pyrazol-4-ylamino)isonicotinic acid]
1 to 100	100 to 1000		Cc1nn([C@H]2CNC[C@H]2C)cc1Nc1cnccc1C(=O)O (single isomer, unassigned) [Compound 110]
100 to 1000	100 to 1000		CN1CCC(n2cc(Nc3cnccc3C(=O)O)c(-c3ccccc3)n2)CC1 [Compound 127, 3-(1-(1-methylpiperidin-4-yl)-3-phenyl-1H-pyrazol-4-ylamino)isonicotinic acid]
1 to 100	100 to 1000		Cc1nn(C2CCN(c3ccccc3)CC2)cc1Nc1cnccc1C(=O)O [Compound 105, 3-(3-methyl-1-(1-phenylpiperidin-4-yl)-1H-pyrazol-4-ylamino) isonicotinic acid]
1 to 100	100 to 1000		CN1CCC(n2cc(-c3ccccc3)c(Nc3cnccc3C(=O)O)n2)CC1 [Compound 130, 3-(1-(1-methylpiperidin-4-yl)-4-phenyl-1H-pyrazol-3-ylamino) isonicotinic acid]
1000 to 10000	100 to 1000		CCc1c(Nc2cnccc2C(=O)O)cnn1C1CCN(C)CC1 [Compound 123, 3-(5-ethyl-1-(1-methylpiperidin-4-yl)-1H-pyrazol-4-ylamino) isonicotinic acid]
1 to 100	100 to 1000		Cc1cn(C2CCCNC2)nc1Nc1cnccc1C(=O)O (centres unmarked) [Compound 141, 3-(4-methyl-1-(piperidin-3-yl)-1H-pyrazol-3-ylamino) isonicotinic acid]
